Entries after “also recorded” stand apart in the source; their conditions may differ.
How the values were obtained:
KCNQ2/3 [1] = molecular target: T1, KCNQ2/3 (Homo sapiens, UniProt O43525+O43526); test: TEVC of heteromeric KCNQ2/3 channels expressed in Xenopus laevis oocytes; assay type: cell-based; details: for effect on voltage dependence of KCNQ2/3 activation, screen of M. oppositifolius leaf compounds: 100 μM, MTX and palmitic acid 30 μM
Excerpt: (§1) cRNA transcripts encoding human KCNA1, KCNQ1, KCNQ2, KCNQ3, KCNQ4, or KCNQ5 were generated by in vitro transcription using the T7 polymerase message machine kit (Thermo Fisher Scientific), after vector linearization, from cDNA sub-cloned into plasmids incorporating X. laevis β-globin 5′ and 3′ UTRs flanking the coding region to enhance translation and cRNA stability. cRNA was quantified by spectrophotometry. Mutant cDNAs were generated by site-directed mutagenesis using a QuikChange kit according to manufacturer's protocol (Stratagene, San Diego, Calif.) and corresponding cRNAs prepared as above. Defolliculated stage V and VI X. laevis oocytes (Ecocyte Bioscience, Austin, Tex.) were injected with Kv channel a subunit cRNAs (10 ng total per oocyte). Oocytes were incubated at 16° C. in Barth's saline solution (Ecocyte) containing penicillin and streptomycin, with daily washing, for 3-5 days prior to two-electrode voltage-clamp (TEVC) recording.
TEVC recording was performed at room temperature with an OC-725C amplifier (Warner Instruments, Hamden, Conn.) and pClamp10.2 software (Molecular Devices, Sunnyvale, Calif.) 3-5 days after cRNA injection as described in the section above. Oocytes were placed in a small-volume oocyte bath (Warner) and viewed with a dissection microscope. Chemicals were sourced from Sigma. Bath solution was (in mM): 96 NaCl, 4 KCl, 1 MgCl2, 1 CaCl2. 10 HEPES (pH 7.6). […] MTX (DMSO), sorbic acid (ethanol), and glutaconic acid (molecular grade H2O) were stored at −20° C. as 1 M stocks. Oleamide was stored as a 1 mM stock in ethanol at 4° C. Palmitic acid was conjugated with bovine serum albumin as a 1 mM stock and stored at −20° C. All compounds were diluted to working concentrations each experimental day. All compounds were introduced to the recording bath via gravity perfusion at a constant flow of 1 ml/min for 3 min prior to recording. Pipettes were of 1-2 MΩ resistance when filled with 3 M KCl. Currents were recorded in response to pulses between −80 and +40 mV at 20 mV intervals, or a single pulse to +40 mV, from a holding potential of −80 mV, to yield current-voltage relationships, current magnitude, and for quantifying activation rate. TEVC data analysis was performed with Clampfit10.2 (Molecular Devices) and Graphpad Prism software (GraphPad, San Diego, Calif., USA); values are stated as mean±SEM. Normalized tail currents were plotted versus prepulse voltage and fitted with a single Boltzmann function: […]
cRNA transcripts encoding human KCNQ2, KCNQ3, KCNQ4, KCNQ5 (Kv7.2-Kv7.5) were generated by in vitro transcription using the T7 polymerase mMessage mMachine kit (Thermo Fisher Scientific), after vector linearization, from cDNA sub-cloned into plasmids incorporating Xenopus laevis β-globin 5′ and 3′ UTRs flanking the coding region to enhance translation and cRNA stability. cRNA was quantified by spectrophotometry. Mutant KCNQ2 and KCNQ3 cDNAs were generated with site-directed mutagenesis using a QuikChange kit according to the manufacturer's protocol (Stratagene, San Diego, Calif.) and corresponding cRNAs prepared as above.

KCNQ2-W236L/KCNQ3-W265L = KCNQ2-W236L/KCNQ3-W265L (Homo sapiens, UniProt O43525+O43526, W236L/W265L); test: TEVC of double-mutant WL/WL KCNQ2/3 channels; assay type: cell-based
Excerpt: as §1
TEVC recording was performed at room temperature with an OC-725C amplifier (Warner Instruments, Hamden, Conn.) and pClamp10.2 software (Molecular Devices, Sunnyvale, Calif.) 3-5 days after cRNA injection as described in the section above. Oocytes were placed in a small-volume oocyte bath (Warner) and viewed with a dissection microscope. Chemicals were sourced from Sigma. Bath solution was (in mM): 96 NaCl, 4 KCl, 1 MgCl2, 1 CaCl2. 10 HEPES (pH 7.6). […] Currents were recorded in response to pulses between −80 and +40 mV at 20 mV intervals, or a single pulse to +40 mV, from a holding potential of −80 mV, to yield current-voltage relationships, current magnitude, and for quantifying activation rate. […]
cRNA transcripts encoding human KCNQ2, KCNQ3, KCNQ4, KCNQ5 (Kv7.2-Kv7.5) were generated by in vitro transcription using the T7 polymerase mMessage mMachine kit (Thermo Fisher Scientific), after vector linearization, from cDNA sub-cloned into plasmids incorporating Xenopus laevis β-globin 5′ and 3′ UTRs flanking the coding region to enhance translation and cRNA stability. cRNA was quantified by spectrophotometry. […]

KCNQ4 = KCNQ4 (Homo sapiens, UniProt P56696); test: TEVC of homomeric KCNQ4 expressed in Xenopus oocytes; assay type: cell-based
Excerpt: as §1
(§2) TEVC recording was performed at room temperature with an OC-725C amplifier (Warner Instruments, Hamden, Conn.) and pClamp10.2 software (Molecular Devices, Sunnyvale, Calif.) 3-5 days after cRNA injection as described in the section above. Oocytes were placed in a small-volume oocyte bath (Warner) and viewed with a dissection microscope. Chemicals were sourced from Sigma. Bath solution was (in mM): 96 NaCl, 4 KCl, 1 MgCl2, 1 CaCl2. 10 HEPES (pH 7.6). […] MTX (DMSO), sorbic acid (ethanol), and glutaconic acid (molecular grade H2O) were stored at −20° C. as 1 M stocks. Oleamide was stored as a 1 mM stock in ethanol at 4° C. Palmitic acid was conjugated with bovine serum albumin as a 1 mM stock and stored at −20° C. All compounds were diluted to working concentrations each experimental day. All compounds were introduced to the recording bath via gravity perfusion at a constant flow of 1 ml/min for 3 min prior to recording. Pipettes were of 1-2 MΩ resistance when filled with 3 M KCl. Currents were recorded in response to pulses between −80 and +40 mV at 20 mV intervals, or a single pulse to +40 mV, from a holding potential of −80 mV, to yield current-voltage relationships, current magnitude, and for quantifying activation rate. TEVC data analysis was performed with Clampfit10.2 (Molecular Devices) and Graphpad Prism software (GraphPad, San Diego, Calif., USA); values are stated as mean±SEM. Normalized tail currents were plotted versus prepulse voltage and fitted with a single Boltzmann function:
(§3) cRNA transcripts encoding human KCNQ2, KCNQ3, KCNQ4, KCNQ5 (Kv7.2-Kv7.5) were generated by in vitro transcription using the T7 polymerase mMessage mMachine kit (Thermo Fisher Scientific), after vector linearization, from cDNA sub-cloned into plasmids incorporating Xenopus laevis β-globin 5′ and 3′ UTRs flanking the coding region to enhance translation and cRNA stability. cRNA was quantified by spectrophotometry. Mutant KCNQ2 and KCNQ3 cDNAs were generated with site-directed mutagenesis using a QuikChange kit according to the manufacturer's protocol (Stratagene, San Diego, Calif.) and corresponding cRNAs prepared as above. Defolliculated stage V and VI Xenopus laevis oocytes (Ecocyte Bioscience, Austin, Tex.) were injected with KCNQ channel α subunit cRNAs (5-10 ng). The oocytes were incubated at 16° C. in Barth's saline solution (Ecocyte) containing penicillin and streptomycin, with daily washing, for 2-5 days prior to two-electrode voltage-clamp (TEVC) recording.
(§4) TEVC recording was performed at room temperature using a OC-725C amplifier (Warner Instruments, Hamden, Conn.) and pClamp8 software (Molecular Devices, Sunnyvale, Calif.) 2-5 days after cRNA injection as described in the section above. The oocytes were placed in a small-volume oocyte bath (Warner) and viewed with a dissection microscope. Unless otherwise stated, chemicals were sourced from Sigma. Bath solution was (in mM): 96 NaCl, 4 KCl, 1 MgCl2, 1 CaCl2, 10 HEPES (pH 7.6).

KCNQ2 = KCNQ2 (Homo sapiens, UniProt O43526); test: TEVC of homomeric KCNQ2 expressed in Xenopus oocytes; assay type: cell-based; details: Example 4; read-out: EC50, ΔV0.5act of KCNQ2
Excerpt: as §1, §2, §3, §4

KCNQ1 = KCNQ1 (Homo sapiens, UniProt P51787); test: TEVC of homomeric KCNQ1 expressed in Xenopus oocytes; assay type: cell-based; details: Example 4; read-out: EC50, ΔV0.5act of KCNQ1
Description: Oocytes were placed in a small-volume oocyte bath (Warner) and viewed with a dissection microscope. Chemicals were sourced from Sigma. Bath solution was (in mM): 96 NaCl, 4 KCl, 1 MgCl2, 1 CaCl2. 10 HEPES (pH 7.6). […] MTX (DMSO), sorbic acid (ethanol), and glutaconic acid (molecular grade H2O) were stored at −20° C. as 1 M stocks. Oleamide was stored as a 1 mM stock in ethanol at 4° C. Palmitic acid was conjugated with bovine serum albumin as a 1 mM stock and stored at −20° C. All compounds were diluted to working concentrations each experimental day. All compounds were introduced to the recording bath via gravity perfusion at a constant flow of 1 ml/min for 3 min prior to recording. Pipettes were of 1-2 MΩ resistance when filled with 3 M KCl. Currents were recorded in response to pulses between −80 and +40 mV at 20 mV intervals, or a single pulse to +40 mV, from a holding potential of −80 mV, to yield current-voltage relationships, current magnitude, and for quantifying activation rate. […]

KCNQ5 = KCNQ5 (Homo sapiens, UniProt Q9NR82); test: TEVC of homomeric KCNQ5 expressed in Xenopus oocytes; assay type: cell-based
Excerpt: as §1, §2, §3, §4

KCNQ3* (KCNQ3-A315T) = KCNQ3* (KCNQ3-A315T) (Homo sapiens, UniProt O43525, A315T); test: TEVC of homomeric KCNQ3* expressed in Xenopus oocytes; assay type: cell-based
Excerpt: as §1, §2, §3, §4

KCNQ2/3 [2] = molecular target: T1, KCNQ2/3; details: cited from earlier work
[3] = system: pentylene tetrazole-induced seizures; test: PTZ chemoconvulsant assay; assay type: in vivo, mouse
Excerpt: We compared anticonvulsant activities of test compounds in male C57BL/6 mice (Charles River) aged 2-3 months. Mice were housed and used according to the recommendations in the Guide for the Care and Use of Laboratory Animals of the National Institutes of Health (NIH Publication, 8th edition, 2011). The study protocol was approved by the Institutional Animal Care and Use Committee of University of California, Irvine, which confirmed that all relevant ethical regulations were adhered to. Chemicals were sourced from Sigma (St. Louis, Mo., USA). A pentylene tetrazole (PTZ) chemoconvulsant assay was used-. […] Following the PTZ injection, mice were caged individually and an observer (GWA) blinded to the drug used recorded, over 20 min, clonic and tonic seizure incidence, and seizure-related mortality.
We quantified the anticonvulsant activities of (E)-2-dodecenal and tridecanal in male C57BL/6 mice (Charles River, Wilmington, Mass.) aged 2-3 months. The mice were housed and used according to the recommendations in the Guide for the Care and Use of Laboratory Animals of the National Institutes of Health (NIH Publication, 8th edition, 2011). The study protocol was approved by the Institutional Animal Care and Use Committee of University of California, Irvine. The chemicals were sourced from Sigma (St. Louis, Mo., USA). We used a pentylene tetrazole (PTZ) chemoconvulsant assay as we previously described (30). We injected the mice intraperitoneally with (E)-2-dodecenal (2 or 20 mgkg^−1) (with or without 2.5 mgkg^−1 XE991) or tridecanal (20 mgkg^−1) solubilized in PBS, or vehicle control (PBS), and then 30 minutes later we injected mice intraperitoneally with 80 mgkg-PTZ. Following the PTZ injection, the mice were caged individually and an observer (GWA) blinded to the experimental condition timed the latency to first seizure.
We compared anticonvulsant activities of 3FMSG in male C57BL/6 mice (Charles River) aged 2-3 months. Mice were housed and used according to the recommendations in the Guide for the Care and Use of Laboratory Animals of the National Institutes of Health (NIH Publication, 8th edition, 2011). The study protocol was approved by the Institutional Animal Care and Use Committee of University of California, Irvine, which confirmed that all relevant ethical regulations were adhered to. Chemicals were sourced from Sigma (St. Louis, Mo., USA). We used a pentylene tetrazole (PTZ) chemoconvulsant assay as we previously described^27. Mice were injected intraperitoneally with 3FMSG (5 mg kg^−1) or vehicle control (PBS) and then 30 minutes later injected intraperitoneally with 80 mg kg^−1 PTZ. Following the PTZ injection, mice were caged individually and an observer (GWA) blinded to the drug used recorded seizure activity over 20 minutes.

Oc1ccccc1S [2-mercaptophenol]
concentration from which KCNQ2/3 is inhibited (KCNQ2/3 [1]): ~100 µM
effect of co-applied compound (100 μM) on KCNQ2/3 activation by MTX (30 μM) or IVA (500 μM) (KCNQ2/3 [1]): did not alter
effect on KCNQ2/3 activity (in words) (KCNQ2/3 [1]): inhibits; also recorded: inhibitory at higher doses
effect on voltage dependence of KCNQ2/3 activation, screen of M. oppositifolius leaf compounds (KCNQ2/3 [1]): positive-shifted
effect on WL/WL KCNQ2/3 (in words) (KCNQ2-W236L/KCNQ3-W265L): insensitive

NC(C(=O)O)c1ccc(F)cc1 (stereo not drawn) [4FPG, 4-(fluorophenyl)glycine]
EC50 (KCNQ4; Example 4, read-out: EC50, ΔV0.5act of KCNQ4): 49 ± 12 nM
EC50 (KCNQ2/3 [1]; Example 4, read-out: EC50, shift in voltage dependence of KCNQ2/3 activation (ΔV0.5act)): 61 ± 42 nM
EC50 (KCNQ2): 69 ± 31 nM
EC50 (KCNQ1): 90 ± 20 nM
effect on KCNQ5 (in words) (KCNQ5): no effects
effect on KCNQ3* (in words) (KCNQ3* (KCNQ3-A315T)): no effects

NCCCC(=O)O [GABA, γ-aminobutyric acid, reference compound]
effect on KCNQ4 (in words) (KCNQ4): unable to open

NCC(O)CC(=O)O (stereo not drawn) [GABOB, γ-Amino-β-hydroxybutyric acid]
effect of co-applied compound (100 μM) on KCNQ2/3 activation by MTX (30 μM) or IVA (500 μM) (KCNQ2/3 [1]): only partially diminishes; also recorded: highly effective at competing out

O=C(Nc1ccc(Cl)nc1)c1ccc(F)c(F)c1 [ICA-27243]
potency at opening KCNQ2/3 versus KCNQ4 (KCNQ2/3 [2]): > 20 fold

O=C(Nc1cnc(Cl)nc1)c1ccc(F)c(F)c1 [ICA-069673]
selectivity KCNQ2/3 versus KCNQ3/5 activation (KCNQ2/3 [2]): 20 fold

O=C1c2ccccc2C(Cc2ccncc2)(Cc2ccncc2)c2ccccc21 [XE991]
inhibition of activator-augmented KCNQ2/3 current (KCNQ2/3 [1]; after wash-in of MTX or gabapentin): rapidly inhibited; also recorded: completely inhibited
latency to first PTZ-induced seizure ([3]; XE991 2.5 mgkg−1 with (E)-2-dodecenal 20 mgkg−1): eliminated the protective effect

O=C(O)C=CCC(=O)O [glutaconic acid]
effect on voltage dependence of KCNQ2/3 activation, screen of M. oppositifolius leaf compounds (KCNQ2/3 [1]): negative-shifted

CCCCCCCC/C=C\CCCCCCCC(N)=O [oleamide]
effect on KCNQ2/3 activity (in words) (KCNQ2/3 [1]): slightly increased KCNQ2/3 currents at higher voltages

CCCCCCCCCCCCCCCC(=O)O [palmitic acid]
effect on voltage dependence of KCNQ2/3 activation, screen of M. oppositifolius leaf compounds (KCNQ2/3 [1]): negative-shifted

CC(C)C[C@H](CN)CC(=O)O [pregabalin]
concentration from which KCNQ2/3 is inhibited (KCNQ2/3 [1]): ≥ 10 µM
effect on KCNQ2/3 activity (in words) (KCNQ2/3 [1]): does not activate; also recorded: no augmenting effect
effect on KCNQ2/3 gating kinetics (KCNQ2/3 [1]): no effects
shift of membrane potential (EM) of KCNQ2/3-expressing oocytes (KCNQ2/3 [1]; unclamped oocytes): failed to shift

CCCCCCCCCCCCC=O [tridecanal, reference compound]
effect on KCNQ2/3 activity (in words) (KCNQ2/3 [1]): KCNQ2/3-inactive
latency to first PTZ-induced seizure ([3]; 20 mgkg−1 i.p.): no effect

CCCCC(=O)O [valeric acid]
KCNQ2/3 activation (previously found) (KCNQ2/3 [2]): inactive

Source: patent publication US12268683B2, “Compounds and methods for synergistic activation of M channels” (THE REGENTS OF THE UNIVERSITY OF CALIFORNIA, priority 2018, dated 2025)
